{"source": "patent US20210038559A1", "about": "“CANNABINOIDS AND DERIVATIVES FOR PROMOTING IMMUNOGENICITY OF TUMOR AND INFECTED CELLS” (priority 2018, published 2021)", "note": "Structures can show the parent of a compound that is named as a salt.", "data": [{"test_system": "MHC-I expression by COLO 205 cells", "experiment": "cells", "type": "cell-based, human", "details": "not given", "procedure": "(§1) A panel of synthetic cannabinoids (Cayman Chemical, #9002891) was tested for MHC class I-inducing capability in COLO 205 cells as described above. COLO 205 cells were treated with the compounds at a concentration of 35 μM and evaluated for cell surface MHC class I expression after 48 hours. Cells were harvested, stained with MHC-I mAb W6/32 (Thermo Fisher). MHC-I expression was determined by flow cytometry.", "units": {"Induction Fold": "Fold"}, "values": [{"smiles": "COC(=O)[C@@H](NC(=O)c1nn(CCCC(C)F)c2ccccc12)C(C)C", "note": "(stereo partly shown) [Example 268, methyl (1-(4-fluoropentyl)-1H-indazole-3-carbonyl)-1-valinate]", "Induction Fold": 1.55}]}, {"test_system": "MHC-I expression by COLO 205 cells", "experiment": "cells", "type": "cell-based, human", "details": "Homo sapiens, COLO 205, 48 h, MHC-I expression, COLO 205 cells, compounds at 35 μM, 48 hours, flow cytometry (W6/32); read-out: Induction Fold", "procedure": "as §1", "values": [{"smiles": "O=C(Oc1cccc2ccccc12)c1cn(CCCCCF)c2ccccc12", "note": "[Example 257, naphthalen-1-yl 1-(5-fluoropentyl)-1H-indole-3-carboxylate]", "fold induction at 35 µM": 1.59}, {"smiles": "CCCCCn1nc(C(=O)Oc2cccc3cccnc23)c2ccccc21", "note": "[Example 258, 1-pentyl-1H-indazole-3-carboxylic acid, 8-quinolinyl ester]", "fold induction at 35 µM": 1.59}, {"smiles": "CCCCCn1cc(C(=O)c2ccc3ccccc3c2)c2ccccc21", "note": "[Example 259, 2-naphthalenyl(1-pentyl-1H-indol-3-yl)-methanone]", "fold induction at 35 µM": 1.58}, {"smiles": "CC1(C)C(C(=O)c2cn(CC3CCOCC3)c3ccccc23)C1(C)C", "note": "[Example 260, [1-[(tetrahydro-2H-pyran-4-yl)methyl]-1H-indol-3-yl](2,2,3,3-tetramethylcyclopropyl)-methanone]", "fold induction at 35 µM": 1.57}, {"smiles": "O=C(Oc1cnc2ccccc2c1)c1cn(CC2CCCCC2)c2ccccc12", "note": "[Example 261, Quinolin-3-yl 1-(cyclohexylmethyl)-1H-indole-3-carboxylate]", "fold induction at 35 µM": 1.56}, {"smiles": "CCCCCn1cc(C(=O)c2cc(Cl)cc3ccccc23)c2ccccc21", "note": "[Example 263, (3-chloronaphthalen-1-yl)(1-pentyl-1H-indol-3-yl)methanone, hydrate]", "fold induction at 35 µM": 1.56}, {"smiles": "CCCCCn1cc(C(=O)c2cc(CC)cc3ccccc23)c2ccccc21", "note": "[Example 264, (3-ethyl-1-naphthalenyl)(1-pentyl-1H-indol-3-yl)-methanone]", "fold induction at 35 µM": 1.56}, {"smiles": "CCCCCn1cc(C(=O)c2ccc(OC)c3ccccc23)c2ccccc21", "note": "[Example 265, (4-methoxy-1-naphthalenyl)(1-pentyl-1H-indol-3-yl)-methanone]", "fold induction at 35 µM": 1.55}, {"smiles": "NC(=O)[C@H](Cc1ccccc1)NC(=O)c1cn(CCCCCF)c2ccccc12", "note": "[Example 267, (S)-N-(1-amino-1-oxo-3-phenylpropan-2-yl)-1-(5-fluoropentyl)-1H-indole-3-carboxamide]", "fold induction at 35 µM": 1.55}, {"smiles": "CCC(C)Cn1cc(C(=O)c2ccc3ccccc3c2)c2ccccc21", "note": "(stereo not shown) [Example 271, (1-(2-methylbutyl)-1H-indol-3-yl)(naphthalen-2-yl)-methanone]", "fold induction at 35 µM": 1.54}, {"smiles": "CCCCCn1cc(C(=O)N2CCN(C)CC2)c2ccccc21", "note": "[Example 273, (4-methylpiperazin-1-yl)(1-pentyl-1H-indol-3-yl)methanone, monohydrochloride]", "fold induction at 35 µM": 1.53}, {"smiles": "CCCCCn1cc(C(=O)Oc2ccc3ccncc3c2)c2ccccc21", "note": "[Example 274, isoquinolin-7-yl 1-pentyl-1H-indole-3-carboxylate]", "fold induction at 35 µM": 1.52}, {"smiles": "CCCCCn1cc(C(=O)c2cccc3cc(CC)ccc23)c2ccccc21", "note": "[Example 275, (6-ethylnaphthalen-1-yl)(1-pentyl-1H-indol-3-yl)methanone]", "fold induction at 35 µM": 1.52}, {"smiles": "O=C(Oc1cccc2cccnc12)c1nn(Cc2ccc(F)cc2)c2ccccc12", "note": "[Example 276, quinolin-8-yl 1-(4-fluorobenzyl)-1H-indazole-3-carboxylate]", "fold induction at 35 µM": 1.51}, {"smiles": "CN(C)C(=O)n1nnc(Cc2ccc(-c3ccccc3)cc2)n1", "note": "[Example 278, 5-([1,1′-biphenyl]-4-ylmethyl)-N,N-dimethyl-2H-tetrazole-2-carboxamide]", "fold induction at 35 µM": 1.49}, {"smiles": "CC(C)(NC(=O)c1nn(CCCCC#N)c2ccccc12)c1ccccc1", "note": "[Example 281, 1-(4-cyanobutyl)-N-(1-methyl-1-phenylethyl)-1H-indazole-3-carboxamide]", "fold induction at 35 µM": 1.48}, {"smiles": "CCCCn1cc(C(=O)c2ccc(OC)cc2)c2ccccc21", "note": "[Example 282, (4-methoxyphenyl)(1-butyl-1H-indol-3-yl)-methanone]", "fold induction at 35 µM": 1.47}, {"smiles": "O=C(c1ccc(I)cc1)c1cn(CCCCCF)c2ccccc12", "note": "[Example 283, (1-(5-fluoropentyl)-1H-indol-3-yl)(4-iodophenyl)methanone]", "fold induction at 35 µM": 1.46}, {"smiles": "CC(C)Cn1cc(C(=O)c2ccc3ccccc3c2)c2ccccc21", "note": "[Example 284, (1-isobutyl-1H-indol-3-yl)(naphthalen-2-yl)methanone]", "fold induction at 35 µM": 1.46}, {"smiles": "CCCCCn1cc(C(=O)c2cccc3cc(Cl)ccc23)c2ccccc21", "note": "[Example 285, (6-chloronaphthalen-1-yl)(1-pentyl-1H-indol-3-yl)methanone]", "fold induction at 35 µM": 1.46}, {"smiles": "O=C(Nc1cccc2ccccc12)c1cn(CCCCCF)c2ccccc12", "note": "[Example 286, 1-(5-fluoropentyl)-N-(naphthalen-1-yl)-1H-indole-3-carboxamide]", "fold induction at 35 µM": 1.45}, {"smiles": "CN(C)C(=O)n1nnnc1Cc1ccc(-c2ccccc2)cc1", "note": "[Example 288, 5-([1,1′-biphenyl]-4-ylmethyl)-N,N-dimethyl-1H-tetrazole-1-carboxamide]", "fold induction at 35 µM": 1.45}, {"smiles": "CC(C)(C)C(NC(=O)c1nn(CCCCCF)c2ccccc12)C(N)=O", "note": "(stereo not shown) [Example 289, N-[1-(aminocarbonyl)-2,2-dimethylpropyl]-1-(5-fluoropentyl)-1H-indazole-3-carboxamide]", "fold induction at 35 µM": 1.44}, {"smiles": "CC(C)[C@H](NC(=O)c1nn(CCCCCF)c2ccccc12)C(N)=O", "note": "[Example 292, N-[(1S)-1-(aminocarbonyl)-2-methylpropyl]-1-(5-fluoropentyl)-1H-indazole-3-carboxamide]", "fold induction at 35 µM": 1.43}, {"smiles": "CC(F)CCCn1nc(C(=O)NC(C(N)=O)C(C)C)c2ccccc21", "note": "(stereo not shown) [Example 293, N-(1-amino-3-methyl-1-oxobutan-2-yl)-1-(4-fluoropentyl)-1H-indazole-3-carboxamide]", "fold induction at 35 µM": 1.43}, {"smiles": "CCCCCn1nc2ccccc2c1C(=O)Nc1cccc2ccccc12", "note": "[Example 294, N-(naphthalen-1-yl)-2-pentyl-2H-indazole-3-carboxamide]", "fold induction at 35 µM": 1.43}, {"smiles": "COc1cccc2c(C(=O)N[C@@H]3C(C)(C)[C@@H]4CC[C@@]3(C)C4)c(C)n(CCN3CCOCC3)c12", "note": "[Example 295, 7-methoxy-2-methyl-1-[2-(4-morpholinyl)ethyl]-N-[(1S,2S,4R)-1,3,3-trimethylbicyclo[2.2.1]hept-2-yl]-1H-indole-3-carboxamide]", "fold induction at 35 µM": 1.43}, {"smiles": "CCCC(F)Cn1cc(C(=O)Nc2cccc3ccccc23)c2ccccc21", "note": "(stereo not shown) [Example 296, 1-(2-fluoropentyl)-N-(naphthalen-1-yl)-1H-indole-3-carboxamide]", "fold induction at 35 µM": 1.43}, {"smiles": "CC(C)(C)C(NC(=O)c1cn(CCCCCF)c2ccccc12)C(N)=O", "note": "(stereo not shown) [Example 297, N-[1-(aminocarbonyl)-2,2-dimethylpropyl]-1-(5-fluoropentyl)-1H-indole-3-carboxamide]", "fold induction at 35 µM": 1.42}, {"smiles": "CCCCCn1cc(C(=O)c2cccc3cc(OC)ccc23)c2ccccc21", "note": "[Example 300, (6-methoxy-1-naphthalenyl)(1-pentyl-1H-indol-3-yl)-methanone]", "fold induction at 35 µM": 1.42}, {"smiles": "CCCCCCc1ccc(O)cc1OCCCCCCCCCCC(=O)NC1CC1", "note": "[Example 302, N-cyclopropyl-11-(2-hexyl-5-hydroxyphenoxy)-undecanamide]", "fold induction at 35 µM": 1.4}, {"smiles": "CCCCCC1=C/C(=C\\c2cccc3ccccc23)c2ccccc21", "note": "[Example 303, 1-[(E)-(3-pentyl-1H-inden-1-ylidene)methyl]-naphthalene]", "fold induction at 35 µM": 1.39}, {"smiles": "CN1CCCCC(n2cc(C(=O)C3C(C)(C)C3(C)C)c3ccccc32)C1", "note": "(stereo not shown) [Example 305, (1-(1-methylazepan-3-yl)-1H-indol-3-yl)(2,2,3,3-tetramethylcyclopropyl)methanone]", "fold induction at 35 µM": 1.38}, {"smiles": "O=C(NCc1ccccc1)c1cn(CCCCCF)c2ccccc12", "note": "[Example 306, 1-(5-fluoropentyl)-N-(phenylmethyl)-1H-indole-3-carboxamide]", "fold induction at 35 µM": 1.38}, {"smiles": "CCCCCn1cc(C(=O)Nc2ccccc2)c2ccccc21", "note": "[Example 307, 1-pentyl-N-phenyl-1H-indole-3-carboxamide]", "fold induction at 35 µM": 1.38}, {"smiles": "COc1ccc(C(=O)c2c(C)n(CCN3CCOCC3)c3ccccc23)cc1", "note": "[Example 308]", "fold induction at 35 µM": 1.38}]}, {"test_system": "MHC-I expression by COLO 205 cells", "experiment": "cells", "type": "cell-based, human", "details": "Homo sapiens, COLO 205, 48 h, read-out: Induction Fold", "procedure": "as §1", "values": [{"smiles": "CCCCCCC(C)(C)c1cc(OC)c(C2C=C(CO)C3CC2C3(C)C)c(OC)c1", "note": "(stereo not shown) [Example 304, 4-[4-(1,1-dimethylheptyl)-2,6-dimethoxyphenyl]-6,6-dimethyl-bicyclo[3.1.1]hept-2-ene-2-methanol]", "fold induction at 35 µM": 1.39}]}, {"test_system": "MHC-I expression by COLO 205 cells", "experiment": "cells", "type": "cell-based, human", "details": "MHC-I expression, COLO 205 cells, compounds at 35 μM, 48 hours, flow cytometry (W6/32)", "procedure": "as §1", "units": {"Induction Fold": "Fold"}, "values": [{"smiles": "CCCCCN1C(=O)C(=NNC(=O)c2ccccc2)c2ccc(OC)cc21", "note": "[Example 266, 2Z-(1,2-dihydro-6-methoxy-2-oxo-1-pentyl-3H-indol-3-ylidene)hydrazide benzoic acid]", "Induction Fold": 1.55}, {"smiles": "COC(=O)[C@@H](NC(=O)c1cn(Cc2ccc(F)cc2)c2ccccc12)C(C)(C)C", "note": "[Example 269, N-[[1-[(4-fluorophenyl)methyl]-1H-indol-3-yl]carbonyl]-3-methyl-1-valine, methyl ester]", "Induction Fold": 1.54}, {"smiles": "COC(=O)[C@@H](NC(=O)c1cn(Cc2ccc(F)cc2)c2ccccc12)C(C)C", "note": "[Example 270, N-[[1-[(4-fluorophenyl)methyl]-1H-indol-3-yl]carbonyl]-1-valine, methyl ester]", "Induction Fold": 1.54}, {"smiles": "COC(=O)[C@@H](NC(=O)c1nn(CCCCCF)c2ccccc12)C(C)C", "note": "[Example 279, N-[[1-(5-fluoropentyl)-1H-indazol-3-yl]carbonyl]-L-valine, methyl ester]", "Induction Fold": 1.49}, {"smiles": "O=C(NC12CC3CC(CC(C3)C1)C2)c1nn(CCCCCF)c2ccccc12", "note": "[Example 309, N-((3s,5s,7s)-adamantan-1-yl)-1-(5-fluoropentyl)-1H-indazole-3-carboxamide]", "Induction Fold": 1.37}]}]}
